Test results as given in patent US20250353891A1 (MEDIMMUNE LIMITED, priority 2022, published 2025).
Starred links: 1 amine or outer side, 2 acyl side, 3 side chain; linkers in the order of their positions; H or OH if unused. Non-standard residues stand in square brackets, D forms with d. Residues, ends and D or L forms follow the SMILES beside them. Groups on a side chain read outwards from the residue. *: point of attachment. C18 diacid = O=C(O)CCCCCCCCCCCCCCCCC(=O)*; γGlu = O=C(O)[C@H](CCC(=O)[*:2])N[*:1]; αMeF = C[C@](N)(Cc1ccccc1)C(=O)O; PEG4 = NCCOCCOCCOCCOCCC(=O)O; AEEA = NCCOCCOCC(=O)O; Aib = CC(C)(N)C(=O)O

How the values were obtained:
[1] = target: human GLP-1 receptor (hGLP-1R) (Homo sapiens, UniProt P43220); assay: cAMP production (HTRF) in CHO cells expressing hGLP-1R; format: cell-based; set-up: expressed in transfected cells; conditions: for EC50: Table 7, peptides modified at position 20, cAMP in CHO hGLP-1R cells, geometric mean, read-out: hGLP-1R EC50; for % Relative Potency Ratio: Table 7, % GLP-1R activity relative to GLP-1 / % GlucR activity relative to glucagon
Chain of human GLP-1 receptor (hGLP-1R) (P43220 24-463): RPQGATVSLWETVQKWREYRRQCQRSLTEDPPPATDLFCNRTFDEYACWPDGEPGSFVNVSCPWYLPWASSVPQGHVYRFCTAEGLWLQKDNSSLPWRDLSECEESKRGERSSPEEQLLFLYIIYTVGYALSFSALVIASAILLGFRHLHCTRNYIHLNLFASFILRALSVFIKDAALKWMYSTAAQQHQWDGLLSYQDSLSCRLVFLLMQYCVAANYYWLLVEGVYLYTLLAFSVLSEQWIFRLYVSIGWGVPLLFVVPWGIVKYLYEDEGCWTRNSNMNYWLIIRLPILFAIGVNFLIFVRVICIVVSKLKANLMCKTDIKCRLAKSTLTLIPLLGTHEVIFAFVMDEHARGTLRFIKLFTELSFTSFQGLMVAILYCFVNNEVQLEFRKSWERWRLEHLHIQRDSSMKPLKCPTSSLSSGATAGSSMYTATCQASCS
Outline: (§1)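 Cells were resuspended in assay buffer at batch-optimized density, typically 1×10^5 cells/mL for hGLP-1R and 2×10^5 cells/mL for hGCGR. After 30 min incubation at room temperature with compound, cAMP was measured by two-step HTRF. EC50 values came from 4-parameter logistic fits of % Delta F.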

[2] = target: human glucagon receptor (hGCGR) (Homo sapiens, UniProt P47871); assay: cAMP production (HTRF) in CHO cells expressing hGCGR; format: cell-based; set-up: expressed in transfected cells; conditions: Table 7, peptides modified at position 20; cAMP in CHO hGCGR cells; geometric mean; read-out: hGluc-R EC50
Chain of human glucagon receptor (hGCGR) (P47871 26-477): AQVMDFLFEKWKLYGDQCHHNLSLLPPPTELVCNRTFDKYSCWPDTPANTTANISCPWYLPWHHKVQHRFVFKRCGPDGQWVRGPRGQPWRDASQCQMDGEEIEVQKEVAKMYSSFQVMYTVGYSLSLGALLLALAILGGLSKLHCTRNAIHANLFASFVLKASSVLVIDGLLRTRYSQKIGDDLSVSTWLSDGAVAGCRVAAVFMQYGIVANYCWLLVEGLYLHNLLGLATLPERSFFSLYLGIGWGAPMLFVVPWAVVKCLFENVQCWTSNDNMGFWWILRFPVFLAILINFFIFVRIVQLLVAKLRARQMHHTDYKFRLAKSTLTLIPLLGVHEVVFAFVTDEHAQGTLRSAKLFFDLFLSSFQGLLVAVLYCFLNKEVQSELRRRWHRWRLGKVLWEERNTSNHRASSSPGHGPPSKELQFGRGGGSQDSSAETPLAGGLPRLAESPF
Outline: as §1

| EC50 [1] [nM] | % Relative Potency Ratio [1] | EC50 [2] [nM] | Structure (SMILES) |
| --- | --- | --- | --- |
| 0.152 | 36.1 | 2.78 | CC(C)C[C@H](NC(=O)[C@H](Cc1c[nH]c2ccccc12)NC(=O)[C@H](CCC(N)=O)NC(=O)[C@@H](NC(=O)[C@H](Cc1ccccc1)NC(=O)[C@H](CC(=O)O)NC(=O)[C@H](CCCCNC(=O)COCCOCCNC(=O)COCCOCCNC(=O)CC[C@H](NC(=O)CCCCCCCCCCCCCCCCC(=O)O)C(=O)O)NC(=O)[C@H](C)NC(=O)[C@H](CCCNC(=N)N)NC(=O)[C@H](CCCNC(=N)N)NC(=O)[C@H](CO)NC(=O)[C@H](CC(=O)O)NC(=O)[C@H](CC(C)C)NC(=O)[C@](C)(Cc1ccccc1)NC(=O)[C@H](CCCCN)NC(=O)[C@H](CO)NC(=O)[C@H](Cc1ccc(O)cc1)NC(=O)[C@H](CC(=O)O)NC(=O)[C@H](CO)NC(=O)[C@@H](NC(=O)[C@H](Cc1ccccc1)NC(=O)[C@@H](NC(=O)CNC(=O)[C@H](CCC(N)=O)NC(=O)C(C)(C)NC(=O)[C@@H](N)Cc1c[nH]cn1)[C@@H](C)O)[C@@H](C)O)C(C)C)C(=O)N[C@H](C(=O)NCCOCCOCCOCCOCCC(N)=O)C(C)C [Peptide 312] (H-H[Aib]QGTFTSDYSK[αMeF]LDSRRAK([AEEA-AEEA-γGlu-C18 diacid])DFVQWLV[PEG4]-NH2; N-terminus assumed) |
| 0.138 | 17.6 | 1.23 | CC(C)C[C@H](NC(=O)[C@H](Cc1c[nH]c2ccccc12)NC(=O)[C@H](CCC(N)=O)NC(=O)[C@@H](NC(=O)[C@H](Cc1ccccc1)NC(=O)[C@H](CC(=O)O)NC(=O)[C@H](CCCCNC(=O)COCCOCCNC(=O)COCCOCCNC(=O)CC[C@H](NC(=O)CCCCCCCCCCCCCCCCC(=O)O)C(=O)O)NC(=O)[C@H](C)NC(=O)C(C)(C)NC(=O)[C@H](CCCNC(=N)N)NC(=O)[C@H](CO)NC(=O)[C@H](CC(=O)O)NC(=O)[C@H](CC(C)C)NC(=O)[C@](C)(Cc1ccccc1)NC(=O)[C@H](CCCCN)NC(=O)[C@H](CO)NC(=O)[C@@H](NC(=O)[C@H](CC(=O)O)NC(=O)[C@H](CO)NC(=O)[C@@H](NC(=O)[C@H](Cc1ccccc1)NC(=O)[C@@H](NC(=O)CNC(=O)[C@H](CCC(N)=O)NC(=O)C(C)(C)NC(=O)[C@@H](N)Cc1c[nH]cn1)[C@@H](C)O)[C@@H](C)O)C(C)C)C(C)C)C(=O)N[C@@H](CC(C)C)C(=O)N[C@@H](CC(N)=O)C(=O)N[C@H](C(=O)O)[C@@H](C)O [Peptide 313] |
| 0.0308 | 439.3 | 6.83 | CC(C)C[C@H](NC(=O)C(C)(C)NC(=O)[C@H](CCC(N)=O)NC(=O)[C@@H](NC(=O)[C@H](Cc1ccccc1)NC(=O)[C@H](CC(=O)O)NC(=O)[C@H](CCCCNC(=O)COCCOCCNC(=O)COCCOCCNC(=O)CC[C@H](NC(=O)CCCCCCCCCCCCCCCCC(=O)O)C(=O)O)NC(=O)[C@H](C)NC(=O)C(C)(C)NC(=O)[C@H](CCCNC(=N)N)NC(=O)[C@H](CO)NC(=O)[C@H](CC(=O)O)NC(=O)[C@H](CC(C)C)NC(=O)[C@](C)(Cc1ccccc1)NC(=O)[C@H](CCCCN)NC(=O)[C@H](CO)NC(=O)[C@@H](NC(=O)[C@H](CC(=O)O)NC(=O)[C@H](CO)NC(=O)[C@@H](NC(=O)[C@H](Cc1ccccc1)NC(=O)[C@@H](NC(=O)CNC(=O)[C@H](CCC(N)=O)NC(=O)C(C)(C)NC(=O)[C@@H](N)Cc1c[nH]cn1)[C@@H](C)O)[C@@H](C)O)C(C)C)C(C)C)C(=O)N[C@H](C(=O)N[C@@H](C)C(=O)N[C@H](C(N)=O)[C@@H](C)O)C(C)C [Peptide 314] (H-H[Aib]QGTFTSDVSK[αMeF]LDSR[Aib]AK([AEEA-AEEA-γGlu-C18 diacid])DFVQ[Aib]LVAT-NH2; N-terminus assumed) |
